Data taken from US10555965B2, “Environment-responsive hyaluronic acid nanoparticles” (Industry-University Cooperation Foundation Hanyang …, priority 2015, dated 2020).

What was measured:
[1] = tested on: HepG2 tumor; assay: In vivo therapeutic effect (liver cancer growth inhibition); design: species or system mice; settings: intravenous, 5 times for a week, monitored 17 days
Description: To evaluate a therapeutic effect of the HA-PBA nanoparticles, the tumor-bearing mouse model of Experimental Example 7 was prepared.
The HA-PBA nanoparticles (20 mg kg), paclitaxel (10 mg/kg), and PBS were intravenously injected into the caudal veins of the tumor-bearing mice (injected 5 times for a week). Changes in tumor volume were monitored for 2 weeks (n=7). Tumor tissues were extracted from the mice, and embedded into an optimal cutting temperature (OCT) compound. The tumor tissues were cut into sections (12 μm thick), and stained with hematoxylin and eosin (H&E) and a DeadEnd™ colorimetric TUNEL system (Promega, USA).
When the tumor volumes of the mice reached approximately 90 mm3, the HA-PBA nanoparticles, paclitaxel, and PBS were injected into the mice.

[2] = tested on: HepG2 cells; assay: Apoptosis/necrosis by flow cytometry (Annexin-V-FITC/PI); type: cell-based; settings: 12 hours treatment, nanoparticles 1 mg/mL or 2DG 0.25 mg/mL
Description: The 2-deoxy-D-glucose was used as a glycolytic inhibitor. The ATP content was measured using an ATP Colorimetric/Fluorometric Assay Kit (Biovision). Lactate secretion was quantified using an EnzyChromTM L-Lactate Assay Kit (Bioassay). In cell fate, an effect of the HA-PBA nanoparticles on the inhibition of glycolysis was examined using a flow cytometer (BD FACS Caliber). Briefly, the HepG2 cells were treated with the HA-PBA nanoparticles or 2DG for 12 hours. An Annexin-V-FITC antibody and propidium iodide (PI) were used as markers for apoptotic and necrotic cell death. The HepG2 cells were seeded in a 24-well tissue culture plate at a density of 1×10^4 cells/well, and incubated at 37° C. for 24 hours under 5% CO2 conditions. The cells were washed with PBS, and treated for 8 hours with a low or high glucose medium including the HA-PBA nanoparticles (1 mg/mL) having a degree of […]. Also, prior to treatment with the HA-PBA nanoparticles, the cells were pretreated with a hyaluronate (2.5 mg/mL) dissolved in a low glucose medium. The medium was replaced with a fresh medium daily. At a predetermined point of time, the cells were treated with EZ-Cytox for 2 hours, and the optical density at 450 nm was measured using a UV/VIS spectrophotometer. The growth rate of the cells was calculated from a change in the number of the cells in 3 days of incubation. […]

SMILES	weight loss [1]	tumor growth rate compared to PBS-treated group ([1]; nanoparticles 20 mg kg, paclitaxel 10 mg/kg)	in-late apoptotic HepG2 cells ([2]; control 5.77%) [%]	apoptotic HepG2 cells ([2]; control 6.76%) [%]
CC(=O)O[C@H]1C(=O)[C@@]2(C)[C@H]([C@H](OC(=O)c3ccccc3)[C@]3(O)C[C@H](OC(=O)[C@H](O)[C@@H](NC(=O)c4ccccc4)c4ccccc4)C(C)=C1C3(C)C)[C@]1(OC(C)=O)CO[C@@H]1C[C@@H]2O [paclitaxel]	No weight loss	inhibited tumor growth rate	–	–
O=CC[C@@H](O)[C@H](O)[C@H](O)CO [2DG, 2-deoxy-D-glucose]	–	–	4.65	18.81
